Data published in US20220233512A1, “INHIBITING AN IMMUNE RESPONSE MEDIATED BY ONE OR MORE OF TLR2, RAGE, CCR5, CXCR4 AND CD4” (priority 2020, published 2022).

Assays:
[1] = tested on: human astrocyte TLR2 receptors; assay: Release of pro-inflammatory cytokines from primary human astrocytes; assay type: cell-based
Experimental: A primary astrocyte culture was prepared according to the provider (Lonza). The adherent astrocytes were trypsinized by 0.25% trypsin-EDTA, then collected and sub-cultured in 12-well plate (1.2 ml/well). When the cells were 80-85% confluent, cells were treated in an incubator under 5% CO2 with 100 fM, 10 pM or 1 nM Compound C0105 immediately followed by the addition of Ab42 ([…]), LPS (1 mg/ml), LTA-SA (1 mg/ml) and PGN-SA (10 mg/ml); i.e., simultaneously adding the insulting ligand and Compound C0105 to the cells. Vehicle groups were treated with 0.1% DMSO only. Incubation continued for 24 hours post addition. Culture medium was used as the blank (non-treat) and the levels of cytokines, TNF-a, IL-6 and IL-1b in 200 ml of culture medium were determined. Each well was sampled once.
Plates were washed 3 times with ice-cold 50 mM Tris HCl (pH 7.4) and incubated at 30° C. with 200 ml medium derived from the above-mentioned conditions. […] Plates were washed twice with 200 ml ice-cold Tris HCl, pH 7.4 and the residual FITC signals were determined by multimode plate reader, DTX880 (Beckman).
A primary astrocyte culture was prepared according to the provider (Lonza). […] Culture medium was used as the blank (non-treat) and the levels of cytokines, TNF-a, IL-6 and IL-1b in 200 ml of culture medium were determined. […]

[2] = biological target: T1, mu opiate receptor (MOR) (Rattus norvegicus, UniProt P33535); assay: MOR agonist activity using [35S]GTPgS binding assay in striatal membranes; assay type: biochemical; conditions: Series C-2 table
T1 construct: from tissue; host or cells: striatum (membrane preparation)
In short: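 Rat striatal membranes incubated 5 min at 30 °C in pH 7.5 HEPES buffer with 100 mM NaCl, 1 mM MgCl2 and 0.5 nM [35S]GTPgS, then 5 min with compound. Gαo-bound [35S]GTPgS isolated by immunoprecipitation and counted by liquid scintillation.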

T1 sequence (P33535 whole entry): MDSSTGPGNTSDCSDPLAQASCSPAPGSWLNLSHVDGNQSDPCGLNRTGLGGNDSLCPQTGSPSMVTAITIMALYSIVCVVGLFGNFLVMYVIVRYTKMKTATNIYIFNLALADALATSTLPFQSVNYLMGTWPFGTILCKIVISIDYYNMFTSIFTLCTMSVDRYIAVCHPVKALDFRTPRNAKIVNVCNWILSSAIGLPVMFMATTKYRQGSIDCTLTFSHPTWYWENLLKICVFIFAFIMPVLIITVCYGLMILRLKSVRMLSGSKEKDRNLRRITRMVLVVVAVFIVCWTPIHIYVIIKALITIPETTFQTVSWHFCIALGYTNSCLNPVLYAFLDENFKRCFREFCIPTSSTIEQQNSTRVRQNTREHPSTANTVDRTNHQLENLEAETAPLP

Compound: CN1CCC2(CC1)NCC(=O)N2Cc1ccccc1 [Compound C0105M]
- Ab42-induced inflammatory cytokine production (in words) ([1]; Ab42 exposure): nearly abolishes this cytokine production
- Release of the three pro-inflammatory cytokines (in words) ([1]; LTA-SA or PGN-SA insult, human astrocytes): substantially inhibited the release
- MOR agonist activity ([35S]GTPgS binding to Gao) ([2]; 0.1 μM compound as agonist): 198.1%
- MOR agonist activity ([35S]GTPgS binding to Gao) ([2]; 1 μM + BFNA): 73.1%
- MOR agonist activity ([35S]GTPgS binding to Gao) ([2]; 1 μM compound as agonist): 220.3%
